Drawing on US10730863B2, “Bridged bicyclic compounds as farnesoid X receptor modulators” (BRISTOL-MYERS SQUIBB COMPANY, priority 2017, dated 2020), this text covers EC50 for 33 compounds.

What is called EC50 is the concentration that produces a half-maximal response.

The target in the assay is FXR (Homo sapiens (Human), UniProt Q96RI1). Put plainly: FXR EC50 (FXR agonist activity reported with each example). The class given is cell-based.
FXR, sequence (Q96RI1 262-486): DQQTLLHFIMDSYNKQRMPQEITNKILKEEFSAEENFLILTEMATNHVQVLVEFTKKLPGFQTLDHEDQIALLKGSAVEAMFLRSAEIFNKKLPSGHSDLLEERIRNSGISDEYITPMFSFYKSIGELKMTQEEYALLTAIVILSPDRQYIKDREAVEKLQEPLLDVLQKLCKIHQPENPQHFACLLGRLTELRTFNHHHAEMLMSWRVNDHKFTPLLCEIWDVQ
In turn, “3-((4-((5-cyclopropyl-3-(2- trifluoromethoxy)phenyl)isoxazol-4- yl)methoxy)bicyclo[2.2.2]octan-1- yl)methoxy)nicotinic acid [Example 78]” showed a concentration giving a half-maximal response (EC50) of 1400 nM.

In the case of `O=C(O)c1cccc(-c2noc(C34CCC(OCc5c(-c6ccccc6OC(F)(F)F)noc5C5CC5)(CC3)CC4)n2)c1` [Example 1, 3-(5-(4-((5-cyclopropyl-3-(2-(trifluoromethoxy)phenyl)isoxazol-4-yl)methoxy)bicyclo[2.2.2]octan-1-yl)-1,2,4-oxadiazol-3-yl)benzoic acid], it took 110 nM to reach a half-maximal effect (EC50).

`O=C(O)c1ccc(-c2noc(C34CCC(OCc5c(-c6ccccc6OC(F)(F)F)noc5C5CC5)(CC3)CC4)n2)cc1` [Example 2, 4-(5-(4-((5-cyclopropyl-3-(2-(trifluoromethoxy)phenyl)isoxazol-4-yl)methoxy)bicyclo[2.2.2]octan-1-yl)-1,2,4-oxadiazol-3-yl)benzoic acid] yielded a half-maximal effective concentration (EC50) of 170 nM.

As to `CS(=O)(=O)NC(=O)c1ccc(-c2noc(C34CCC(OCc5c(-c6c(Cl)cccc6Cl)noc5C5CC5)(CC3)CC4)n2)cc1` [Example 3, 4-(5-(4-((5-cyclopropyl-3-(2,6-dichlorophenyl)isoxazol-4-yl)methoxy)bicyclo[2.2.2]octan-1-yl)-1,2,4-oxadiazol-3-yl)-N-(methylsulfonyl)benzamide], the EC50 is 890 nM.

`COc1ccc(-c2noc(C34CCC(OCc5c(-c6ccccc6OC(F)(F)F)noc5C5CC5)(CC3)CC4)n2)cc1C(=O)O` [Example 4, 5-(5-(4-((5-cyclopropyl-3-(2-(trifluoromethoxy)phenyl)isoxazol-4-yl)methoxy)bicyclo[2.2.2]octan-1-yl)-1,2,4-oxadiazol-3-yl)-2-methoxybenzoic acid]: the response was half-maximal at 110 nM (EC50).

`O=C(O)c1ccc2nc(C34CCC(OCc5c(-c6ccccc6C(F)(F)F)noc5C5CC5)(CC3)CC4)sc2c1` [Example 6, 2-(4-((5-cyclopropyl-3-(2-(trifluoromethyl)phenyl)isoxazol-4-yl)methoxy)bicyclo[2.2.2]octan-1-yl)benzo[d]thiazole-6-carboxylic acid] returned a concentration giving a half-maximal response (EC50) of 4200 nM.

As to `O=C(O)c1cccc(/C=C/C23CCC(OCc4c(-c5c(Cl)cccc5Cl)noc4C4CC4)(CC2)CC3)c1` [Example 7, (E)-3-(2-(4-((5-cyclopropyl-3-(2,6-dichlorophenyl)isoxazol-4-yl)methoxy)bicyclo[2.2.2]octan-1-yl)vinyl)benzoic acid], the response was half-maximal at 150 nM (EC50).

The compound `FC(F)(F)Oc1ccccc1-c1noc(C2CC2)c1COC12CCC(/C=C/c3cccc(-c4nnn[nH]4)c3)(CC1)CC2` [Example 8, (E)-4-(((4-(3-(1H-tetrazol-5-yl)styryl)bicyclo[2.2.2]octan-1-yl)oxy)methyl)-5-cyclopropyl-3-(2-(trifluoromethoxy)phenyl)isoxazole] yielded an EC50 of 380 nM.

Compound `O=C(O)c1ccc(-c2noc(C34CCC(OCc5c(-c6c(Cl)cccc6Cl)noc5C5CC5)(CC3)CC4)n2)nc1` [Example 9, 6-(5-(4-((5-cyclopropyl-3-(2,6-dichlorophenyl)isoxazol-4-yl)methoxy)bicyclo[2.2.2]octan-1-yl)-1,2,4-oxadiazol-3-yl)nicotinic acid] showed an EC50 of 950 nM.

On to `O=C(O)c1ccnc(-c2noc(C34CCC(OCc5c(-c6c(Cl)cccc6Cl)noc5C5CC5)(CC3)CC4)n2)c1` [Example 10, 2-(5-(4-((5-cyclopropyl-3-(2,6-dichlorophenyl)isoxazol-4-yl)methoxy)bicyclo[2.2.2]octan-1-yl)-1,2,4-oxadiazol-3-yl)isonicotinic acid], for which the EC50 was 2700 nM.

`O=C(O)c1cncc(-c2noc(C34CCC(OCc5c(-c6ccccc6C(F)(F)F)noc5C5CC5)(CC3)CC4)n2)c1` [Example 11, 5-(5-(4-((5-cyclopropyl-3-(2-(trifluoromethyl)phenyl)isoxazol-4-yl)methoxy)bicyclo[2.2.2]octan-1-yl)-1,2,4-oxadiazol-3-yl)nicotinic acid] gave an EC50 of 2900 nM.

`O=C(O)c1ccc(-c2noc(C34CCC(OCc5c(-c6ccccc6OC(F)(F)F)noc5C5CC5)(CC3)CC4)n2)cn1` [Example 12, 5-(5-(4-((5-cyclopropyl-3-(2-(trifluoromethoxy)phenyl)isoxazol-4-yl)methoxy)bicyclo[2.2.2]octan-1-yl)-1,2,4-oxadiazol-3-yl)picolinic acid] returned an EC50 of 1200 nM.

Regarding `O=C(O)c1cccc(-c2noc(C34CCC(OCc5c(-c6c(Cl)cccc6Cl)noc5C5CC5)(CC3)CC4)n2)n1` [Example 13, 6-(5-(4-((5-cyclopropyl-3-(2,6-dichlorophenyl)isoxazol-4-yl)methoxy)bicyclo[2.2.2]octan-1-yl)-1,2,4-oxadiazol-3-yl)picolinic acid], a half-maximal response (EC50) required 270 nM.

The compound `O=C(O)c1cc(-c2noc(C34CCC(OCc5c(-c6c(Cl)cccc6Cl)noc5C5CC5)(CC3)CC4)n2)ccn1` [Example 14, 4-(5-(4-((5-cyclopropyl-3-(2,6-dichlorophenyl)isoxazol-4-yl)methoxy)bicyclo[2.2.2]octan-1-yl)-1,2,4-oxadiazol-3-yl)picolinic acid] gave a half-maximal effective concentration (EC50) of 130 nM.

In turn, `O=C(O)c1cc(F)c2nc(C34CCC(OCc5c(-c6ccccc6OC(F)(F)F)noc5C5CC5)(CC3)CC4)sc2c1` [Example 15, 2-(4-((5-cyclopropyl-3-(2-(trifluoromethoxy)phenyl)isoxazol-4-yl)methoxy)bicyclo[2.2.2]octan-1-yl)-4-fluorobenzo[d]thiazole-6-carboxylic acid] returned an EC50 of 210 nM.

Compound `O=C(O)c1cc(F)c2nc(C34CCC(OCc5c(-c6c(Cl)cccc6Cl)noc5C5CC5)(CC3)CC4)sc2c1` [Example 16, 2-(4-((5-cyclopropyl-3-(2,6-dichlorophenyl)isoxazol-4-yl)methoxy)bicyclo[2.2.2]octan-1-yl)-4-fluorobenzo[d]thiazole-6-carboxylic acid] returned an EC50 of 36 nM.

The compound `O=C(O)c1ccc2[nH]c(C34CCC(OCc5c(-c6c(Cl)cccc6Cl)noc5C5CC5)(CC3)CC4)nc2c1` [Example 17, 2-(4-((5-cyclopropyl-3-(2,6-dichlorophenyl)isoxazol-4-yl)methoxy)bicyclo[2.2.2]octan-1-yl)-1H-benzo[d]imidazole-5-carboxylic acid] returned an EC50 of 2700 nM.

`O=C(O)c1cccc(-c2nnc(C34CCC(OCc5c(-c6ccccc6OC(F)(F)F)noc5C5CC5)(CC3)CC4)o2)c1` [Example 18, 3-(5-(4-((5-cyclopropyl-3-(2-(trifluoromethoxy)phenyl)isoxazol-4-yl)methoxy)bicyclo[2.2.2]octan-1-yl)-1,3,4-oxadiazol-2-yl)benzoic acid]: the response was half-maximal at 1100 nM (EC50).

With `O=C(O)c1cccc(-c2nnc(C34CCC(OCc5c(-c6ccccc6OC(F)(F)F)noc5C5CC5)(CC3)CC4)s2)c1` [Example 19, 3-(5-(4-((5-cyclopropyl-3-(2-(trifluoromethoxy)phenyl)isoxazol-4-yl)methoxy)bicyclo[2.2.2]octan-1-yl)-1,3,4-thiadiazol-2-yl)benzoic acid], the midpoint of the response, the EC50, lay at 1700 nM.

Compound `O=C(O)c1cccc(-c2nc(C34CCC(OCc5c(-c6ccccc6C(F)(F)F)noc5C5CC5)(CC3)CC4)no2)c1` [Example 20, 3-(3-(4-((5-cyclopropyl-3-(2-(trifluoromethyl)phenyl)isoxazol-4-yl)methoxy)bicyclo[2.2.2]octan-1-yl)-1,2,4-oxadiazol-5-yl)benzoic acid] registered a half-maximal effective concentration (EC50) of 510 nM.

For `O=C(O)c1ccc(-c2nc(C34CCC(OCc5c(-c6ccccc6C(F)(F)F)noc5C5CC5)(CC3)CC4)no2)cc1` [Example 21, 4-(3-(4-((5-cyclopropyl-3-(2-(trifluoromethyl)phenyl)isoxazol-4-yl)methoxy)bicyclo[2.2.2]octan-1-yl)-1,2,4-oxadiazol-5-yl)benzoic acid], the midpoint of the response, the EC50, lay at 880 nM.

Regarding `O=C(O)c1cc(-c2nc(C34CCC(OCc5c(-c6c(Cl)cccc6Cl)noc5C5CC5)(CC3)CC4)no2)ccn1` [Example 22, 4-(3-(4-((5-cyclopropyl-3-(2,6-dichlorophenyl)isoxazol-4-yl)methoxy)bicyclo[2.2.2]octan-1-yl)-1,2,4-oxadiazol-5-yl)picolinic acid], the half-maximal effective concentration (EC50) came to 210 nM.

`O=C(O)c1cccc(-c2nc(C34CCC(OCc5c(-c6ccccc6C(F)(F)F)noc5C5CC5)(CC3)CC4)no2)n1` [Example 23, 6-(3-(4-((5-cyclopropyl-3-(2-(trifluoromethyl)phenyl)isoxazol-4-yl)methoxy)bicyclo[2.2.2]octan-1-yl)-1,2,4-oxadiazol-5-yl)picolinic acid] yielded a concentration giving a half-maximal response (EC50) of 2800 nM.

The compound `O=C(O)c1ccc2nc(C34CCC(OCc5c(-c6c(Cl)cccc6Cl)noc5C5CC5)(CC3)CC4)ncc2c1` [Example 24, 2-(4-((5-cyclopropyl-3-(2,6-dichlorophenyl)isoxazol-4-yl)methoxy)bicyclo[2.2.2]octan-1-yl)quinazoline-6-carboxylic acid] returned a half-maximal effective concentration (EC50) of 250 nM.

In turn, `O=C(O)c1cccc(-c2noc(C34CCC(OCc5c(-c6ccccc6C(F)(F)F)noc5C5CC5)(CC3)CC4)n2)c1` [Example 25] yielded an EC50 of 300 nM.

On to `CC(C)c1onc(-c2ccccc2OC(F)(F)F)c1COC12CCC(c3nc(-c4ccc(C(=O)O)cc4)no3)(CC1)CC2` [Example 26], for which the response was half-maximal at 980 nM (EC50).

As to `O=C(O)c1ccc(-c2noc(C34CCC(OCc5c(-c6ccccc6C(F)(F)F)noc5C5CC5)(CC3)CC4)n2)cc1` [Example 29], a half-maximal response (EC50) required 330 nM.

In turn, `COc1ccc(-c2noc(C34CCC(OCc5c(-c6ccccc6C(F)(F)F)noc5C5CC5)(CC3)CC4)n2)cc1C(=O)O` [Example 31] displayed a 50% effective concentration (EC50) of 370 nM.

In the case of `COC(=O)c1ccc(-c2noc(C34CCC(OCc5c(-c6ccccc6C(F)(F)F)noc5C5CC5)(CC3)CC4)n2)cc1` [Example 34], a half-maximal effect (EC50) was put at 5100 nM.

`COC(=O)c1ccc(-c2noc(C34CCC(OCc5c(-c6ccccc6OC(F)(F)F)noc5C(C)C)(CC3)CC4)n2)cc1` [Example 35] showed an EC50 of 2400 nM.

`COC(=O)c1cccc(-c2noc(C34CCC(OCc5c(-c6ccccc6C(F)(F)F)noc5C5CC5)(CC3)CC4)n2)c1` [Example 36] displayed a 50% effective concentration (EC50) of 3500 nM.

Compound `O=C(O)c1ccc2nc(C34CCC(OCc5c(-c6ccccc6OC(F)(F)F)noc5C5CC5)(CC3)CC4)sc2c1` [Example 38] displayed a concentration giving a half-maximal response (EC50) of 360 nM.

In turn, `O=C(O)c1cccc(/C=C/C23CCC(OCc4c(-c5ccccc5OC(F)(F)F)noc4C4CC4)(CC2)CC3)c1` [Example 40] registered a concentration giving a half-maximal response (EC50) of 100 nM.
